Common to all, as to type: in vivo, mouse
Assay [1] in a line: amelioration of leptin resistance (food intake and body weight after leptin) by β3 adrenergic receptor agonist in IR S-2 knockout mice. The settings on record: repeated intraperitoneal administration for 2 weeks, then leptin 20 mg/kg intraperitoneally, 12 hours after leptin, FIG. 4.
Description: Moreover, as a control, for the case without intraperitoneal administration of leptin, in which 10 ml/kg of body weight of Tragacanth gum was repeatedly administered orally for 2 weeks, or in which 10 ml/kg of body weight of physiological saline solution was repeatedly intraperitoneally administered for 2 weeks instead of CL-316243, the changes in the amount of food intake, and the changes in body weight (%) were measured.
The nature of assay [2]: changes in body weight after intraperitoneal administration of leptin, IR S-2 knockout mice. As to conditions: 8-week IR S-2 knockout mice, 12 hours after administration, FIG. 1. The text has this:
Insulin receptor substrate-2 (IR S-2) knockout mice were produced according to Kubota N. et al., Diabetes, November 2000, 49(11), 1880-9. Then, the IR S-2 gene (shown in the upper portion of FIG. 5) was screened from the mouse genome DNA library, and a targeting vector indicated in the middle of FIG. 5 was produced. The targeting vector was introduced into the TT2 ES cell, and ES cell clone with a recombinant was selected (shown in the lower portion of FIG. 5), which was introduced into the 8-celled embryo, thereby obtaining a chimera organism. […]
For the case where 10 mg/kg of body weight of leptin was intraperitoneally administered into the 8-week wild-type mouse, followed by food intake, the changes in body weight (%) after 12 hours of administration of leptin were measured. Moreover, (i) for the case where 10 mg/kg of body weight or 50 mg/kg of body weight of leptin was intraperitoneally administered into the 8-week IR S-2 knockout mouse, followed by food intake, the changes in body weight (%) after 12 hours of administration of leptin were measured. Furthermore, as a control, for the case where physiological saline was administered instead of leptin to the 8-week wild-type and IR S-2 knockout mice, the changes in body weight (%) were measured. […] The statistical significances of the differences in body weight, etc. were determined by Student's t test (two-tailed).

A short description of assay [3]: changes in body weight after continuous ventricular administration of leptin, wild-type mice. The settings on record: 14-week wild-type mice; continuous ventricular leptin 10 ng/hr; after one week; FIG. 2. As to the method:
(§1) In a case where a canula was implanted ventricuarly to a 14-week wild-type mouse, and after starting the continuous ventricular administration of leptin (10 ng/hr), followed by food intake at will, the changes in body weigh (%) were measured after one week of said leptin administration.

The nature of assay [4]: changes in body weight after intraperitoneal administration of leptin, wild-type mice. As to conditions: 8-week wild-type mice; leptin 10 mg/kg of body weight intraperitoneally; 12 hours after administration; FIG. 1. As to the method:
For the case where 10 mg/kg of body weight of leptin was intraperitoneally administered into the 8-week wild-type mouse, followed by food intake, the changes in body weight (%) after 12 hours of administration of leptin were measured. Moreover, (i) for the case where 10 mg/kg of body weight or 50 mg/kg of body weight of leptin was intraperitoneally administered into the 8-week IR S-2 knockout mouse, followed by food intake, the changes in body weight (%) after 12 hours of administration of leptin were measured. Furthermore, as a control, for the case where physiological saline was administered instead of leptin to the 8-week wild-type and IR S-2 knockout mice, the changes in body weight (%) were measured. In FIG. 1, (a) is a result for the case in which the physiological saline was administered; (b) is a result for the case in which […] of body weight of leptin was intraperitoneally administered; and (c) is a result for the case in which […] of body weight of leptin was intraperitoneally administered. In FIG. 1, as well as in other figures, the values are expressed as means±S.E. (n=5−9); **, p<0.01; ***, p<0.001; and “N.S.” not significant. The statistical significances of the differences in body weight, etc. were determined by Student's t test (two-tailed).

A short description of assay [5]: changes in body weight after continuous ventricular administration of leptin, IR S-2 knockout mice. The settings on record: continuous ventricular leptin 10 ng/hr, after one week, FIG. 2.
Description: Insulin receptor substrate-2 (IR S-2) knockout mice were produced according to Kubota N. et al., Diabetes, November 2000, 49(11), 1880-9. Then, the IR S-2 gene (shown in the upper portion of FIG. 5) was screened from the mouse genome DNA library, and a targeting vector indicated in the middle of FIG. 5 was produced. The targeting vector was introduced into the TT2 ES cell, and ES cell clone with a recombinant was selected (shown in the lower portion of FIG. 5), which was introduced into the 8-celled embryo, thereby obtaining a chimera organism. A male chimeric organism was bred with a C57BL/6J female, thereby obtaining hetero-IR S-2 knockout mice, in which a recombinant gene has been introduced into the germ line. These hetero-knockout mice were bred with each other, thereby obtaining homo-IR S-2 knockout mice.
as §1

Consider two compounds from patent publication US20040242485A1, “Compositions and methods for the amelioration of leptin resistance” (priority 2003, published 2004).

Consider `CC(Cc1ccc2c(c1)OC(C(=O)[O-])(C(=O)[O-])O2)NCC(O)c1cccc(Cl)c1.[Na+].[Na+]` (stereo not drawn) [CL-316243], for which the “leptin resistance (changes in food intake (%) and body weight (%) after leptin)” value in assay [1] is “leptin resistance in IR S-2 knockout mice is ameliorated”.

Turning to “leptin: hormone secreted from adipose tissues, regulates appetite and energy metabolism”, the “changes in body weight (%)” value is “significant reduction in weight was not observed” in assay [2] (leptin 10 mg/kg of body weight intraperitoneally); “significant reduction in weight was not observed” in assay [2] (leptin 50 mg/kg of body weight intraperitoneally); “significant reduction in weight was observed” in assay [3]; “significant reduction in weight was observed” in assay [4]; “significant reduction in weight was not observed” in assay [5].
